Laboratory results reported in the supplement of paper PMC10307832.

Tests used:
Assay in all cases: relative viability (nuclei count vs DMSO), 5 days (fraction); higher = more cells survive
NCI-H23 = tested on: NCI-H23
Summary of the method: (§1)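 Lung cancer cell lines were pin-tool dosed in 1536-well plates on the day after seeding, with either a lone drug or a fixed anchor-drug dose plus five library-drug doses (not always all listed) in √10 steps. Nuclei were counted on 4× images after 5 days. Relative viability is the ratio of treated-well to vehicle-well nuclei counts, with each value a median of duplicate plates.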

NCI-H2347 = tested on: NCI-H2347
Summary of the method: as §1

LC-2-ad = tested on: LC-2-ad
Summary of the method: as §1

NCI-H1648 = tested on: NCI-H1648
Summary of the method: as §1

NCI-H520 = tested on: NCI-H520
Summary of the method: as §1

LCLC-97TM1 = tested on: LCLC-97TM1
Summary of the method: as §1

PC-3 [JPC-3] = tested on: PC-3 [JPC-3]
Summary of the method: as §1

NCI-H1623 = tested on: NCI-H1623
Summary of the method: as §1

NCI-H1355 = tested on: NCI-H1355
Summary of the method: as §1

Compound: COCC1(CO)C(=O)C2CCN1CC2 (configuration not stated) [PRIMA-1MET] + COc1cccc2cc(-c3nc([C@H]4CC[C@H](C(=O)O)CC4)n4ncnc(N)c34)[nH]c12 [OSI-027] (partner 0.5 µM)
- relative viability (NCI-H23; first compound 0.2 µM): 0.456
- relative viability (NCI-H23; first compound 0.6325 µM): 0.509
- relative viability (NCI-H23; first compound 2 µM): 0.511
- relative viability (NCI-H23; first compound 6.325 µM): 0.568
- relative viability (NCI-H23; first compound 20 µM): 0.476
- relative viability (NCI-H2347; first compound 0.2 µM): 0.428
- relative viability (NCI-H2347; first compound 0.6325 µM): 0.496
- relative viability (NCI-H2347; first compound 2 µM): 0.247
- relative viability (NCI-H2347; first compound 6.325 µM): 0.336
- relative viability (NCI-H2347; first compound 20 µM): 0.311
- relative viability (LC-2-ad; first compound 0.2 µM): 0.854
- relative viability (LC-2-ad; first compound 2 µM): 0.729
- relative viability (LC-2-ad; first compound 6.325 µM): 0.898
- relative viability (LC-2-ad; first compound 20 µM): 0.819
- relative viability (NCI-H1648; first compound 0.2 µM): 0.24
- relative viability (NCI-H1648; first compound 0.6325 µM): 0.252
- relative viability (NCI-H1648; first compound 2 µM): 0.283
- relative viability (NCI-H1648; first compound 6.325 µM): 0.256
- relative viability (NCI-H1648; first compound 20 µM): 0.249
- relative viability (NCI-H520; first compound 0.2 µM): 0.31
- relative viability (NCI-H520; first compound 0.6325 µM): 0.213
- relative viability (NCI-H520; first compound 2 µM): 0.169
- relative viability (NCI-H520; first compound 6.325 µM): 0.197
- relative viability (NCI-H520; first compound 20 µM): 0.143
- relative viability (LCLC-97TM1; first compound 0.2 µM): 0.306
- relative viability (LCLC-97TM1; first compound 0.6325 µM): 0.554
- relative viability (LCLC-97TM1; first compound 2 µM): 0.582
- relative viability (LCLC-97TM1; first compound 6.325 µM): 0.364
- relative viability (LCLC-97TM1; first compound 20 µM): 0.438
- relative viability (PC-3 [JPC-3]; first compound 0.2 µM): 0.709
- relative viability (PC-3 [JPC-3]; first compound 0.6325 µM): 0.747
- relative viability (PC-3 [JPC-3]; first compound 2 µM): 0.816
- relative viability (PC-3 [JPC-3]; first compound 6.325 µM): 0.77
- relative viability (PC-3 [JPC-3]; first compound 20 µM): 0.792
- relative viability (NCI-H1623; first compound 0.2 µM): 0.374
- relative viability (NCI-H1623; first compound 0.6325 µM): 0.405
- relative viability (NCI-H1623; first compound 2 µM): 0.445
- relative viability (NCI-H1623; first compound 6.325 µM): 0.42
- relative viability (NCI-H1623; first compound 20 µM): 0.303
- relative viability (NCI-H1355; first compound 0.2 µM): 0.361
- relative viability (NCI-H1355; first compound 0.6325 µM): 0.353
- relative viability (NCI-H1355; first compound 2 µM): 0.316
- relative viability (NCI-H1355; first compound 6.325 µM): 0.389
- relative viability (NCI-H1355; first compound 20 µM): 0.406

Compound: COCC1(CO)C(=O)C2CCN1CC2 (configuration not stated) [PRIMA-1MET] + Cc1cc(Nc2cc(N3CCN(C)CC3)nc(Sc3ccc(NC(=O)C4CC4)cc3)n2)n[nH]1 [Tozasertib] (partner 0.1 µM)
- relative viability (NCI-H23; first compound 0.2 µM): 0.507
- relative viability (NCI-H23; first compound 0.6325 µM): 0.312
- relative viability (NCI-H23; first compound 2 µM): 0.371
- relative viability (NCI-H23; first compound 6.325 µM): 0.292
- relative viability (NCI-H23; first compound 20 µM): 0.097
- relative viability (NCI-H2347; first compound 0.2 µM): 0.566
- relative viability (NCI-H2347; first compound 0.6325 µM): 0.531
- relative viability (NCI-H2347; first compound 2 µM): 0.237
- relative viability (NCI-H2347; first compound 6.325 µM): 0.516
- relative viability (NCI-H2347; first compound 20 µM): 0.433
- relative viability (LC-2-ad; first compound 0.2 µM): 0.422
- relative viability (LC-2-ad; first compound 2 µM): 0.399
- relative viability (LC-2-ad; first compound 6.325 µM): 0.429
- relative viability (LC-2-ad; first compound 20 µM): 0.394
- relative viability (NCI-H1648; first compound 0.2 µM): 0.415
- relative viability (NCI-H1648; first compound 0.6325 µM): 0.361
- relative viability (NCI-H1648; first compound 2 µM): 0.391
- relative viability (NCI-H1648; first compound 6.325 µM): 0.574
- relative viability (NCI-H1648; first compound 20 µM): 0.465
- relative viability (NCI-H520; first compound 0.2 µM): 0.402
- relative viability (NCI-H520; first compound 0.6325 µM): 0.416
- relative viability (NCI-H520; first compound 6.325 µM): 0.384
- relative viability (NCI-H520; first compound 20 µM): 0.236
- relative viability (LCLC-97TM1; first compound 0.2 µM): 0.237
- relative viability (LCLC-97TM1; first compound 0.6325 µM): 0.239
- relative viability (LCLC-97TM1; first compound 2 µM): 0.325
- relative viability (LCLC-97TM1; first compound 6.325 µM): 0.204
- relative viability (LCLC-97TM1; first compound 20 µM): 0.123
- relative viability (PC-3 [JPC-3]; first compound 0.2 µM): 0.996
- relative viability (PC-3 [JPC-3]; first compound 0.6325 µM): 0.856
- relative viability (PC-3 [JPC-3]; first compound 2 µM): 0.857
- relative viability (PC-3 [JPC-3]; first compound 6.325 µM): 0.89
- relative viability (PC-3 [JPC-3]; first compound 20 µM): 0.873
- relative viability (NCI-H1623; first compound 0.2 µM): 0.474
- relative viability (NCI-H1623; first compound 0.6325 µM): 0.449
- relative viability (NCI-H1623; first compound 2 µM): 0.445
- relative viability (NCI-H1623; first compound 6.325 µM): 0.452
- relative viability (NCI-H1623; first compound 20 µM): 0.367
- relative viability (NCI-H1355; first compound 0.2 µM): 0.581
- relative viability (NCI-H1355; first compound 0.6325 µM): 0.568
- relative viability (NCI-H1355; first compound 2 µM): 0.564
- relative viability (NCI-H1355; first compound 6.325 µM): 0.629
- relative viability (NCI-H1355; first compound 20 µM): 0.517
